Data from patent US6592885B2, “Method for making infection-resistant fabricated textile articles for biomedical applications” (priority 2001, dated 2003).

Experiments:
S. aureus = experiment: MIC/MBC of native and heated Cipro/Oflox (heat stability); assay type: cell-based; conditions: Staphylococcus aureus, n=6; for MBC: broth backplated on agar; for MIC: 10^6 S. aureus/ml, TSB
Description: An inoculum of S. aureus was diluted to obtain a bacterial concentration of 10^6 S. aureus/ml. […] V. Mosby, St. Louis, 1986]. Antibiotic concentrations in the assay were […].

[1] = Structural stability to heating conditions, dye bath analysis via HPLC; assay type: physicochemical; conditions: heating conditions utilized in pad/heat dyeing; data not shown
[2] = antibiotic heated to 135° C. for 1 hour (dye bath conditions), 24 hours

What does the source list for `O=C(O)c1cn(C2CC2)c2cc(N3CCNCC3)c(F)cc2c1=O` [Cipro, Ciprofloxacin]?
MBC (S. aureus; [2]): 6.5 µM; MBC (S. aureus; native antibiotic, 24 hours): 6.5 µM

What does the source list for `CC1COc2c(N3CCN(C)CC3)c(F)cc3c(=O)c(C(=O)O)cn1c23` (stereo not shown) [Oflox, Ofloxacin]?
structural stability upon dye bath analysis via HPLC [1]: no structural degradation; MIC (S. aureus; [2]): 0.78 µM; MBC (S. aureus; [2]): 9.5 µM; MIC (S. aureus; native antibiotic, turbidity after 24 hours): 0.78 µM; MBC (S. aureus; native antibiotic, 24 hours): 9.5 µM
